Measured values reported in ChEMBL document CHEMBL5150061, “Design and Synthesis of Fibroblast Growth Factor Receptor (FGFR) and Histone Deacetylase (HDAC) Dual Inhibitors for the Treatment of Cancer” (J Med Chem, 2022).
Active and inactive are the calls of the source. No cut-off for these calls is given here.

What was measured:
[1] = molecular target: Histone deacetylase 1 (Homo sapiens, UniProt Q13547); test: Inhibition of HDAC1 (unknown origin)
[2] = molecular target: T1, Protein deacetylase HDAC6 (Homo sapiens, UniProt Q9UBN7); test: Inhibition of HDAC6 (unknown origin)
T1 sequence (Q9UBN7 whole entry): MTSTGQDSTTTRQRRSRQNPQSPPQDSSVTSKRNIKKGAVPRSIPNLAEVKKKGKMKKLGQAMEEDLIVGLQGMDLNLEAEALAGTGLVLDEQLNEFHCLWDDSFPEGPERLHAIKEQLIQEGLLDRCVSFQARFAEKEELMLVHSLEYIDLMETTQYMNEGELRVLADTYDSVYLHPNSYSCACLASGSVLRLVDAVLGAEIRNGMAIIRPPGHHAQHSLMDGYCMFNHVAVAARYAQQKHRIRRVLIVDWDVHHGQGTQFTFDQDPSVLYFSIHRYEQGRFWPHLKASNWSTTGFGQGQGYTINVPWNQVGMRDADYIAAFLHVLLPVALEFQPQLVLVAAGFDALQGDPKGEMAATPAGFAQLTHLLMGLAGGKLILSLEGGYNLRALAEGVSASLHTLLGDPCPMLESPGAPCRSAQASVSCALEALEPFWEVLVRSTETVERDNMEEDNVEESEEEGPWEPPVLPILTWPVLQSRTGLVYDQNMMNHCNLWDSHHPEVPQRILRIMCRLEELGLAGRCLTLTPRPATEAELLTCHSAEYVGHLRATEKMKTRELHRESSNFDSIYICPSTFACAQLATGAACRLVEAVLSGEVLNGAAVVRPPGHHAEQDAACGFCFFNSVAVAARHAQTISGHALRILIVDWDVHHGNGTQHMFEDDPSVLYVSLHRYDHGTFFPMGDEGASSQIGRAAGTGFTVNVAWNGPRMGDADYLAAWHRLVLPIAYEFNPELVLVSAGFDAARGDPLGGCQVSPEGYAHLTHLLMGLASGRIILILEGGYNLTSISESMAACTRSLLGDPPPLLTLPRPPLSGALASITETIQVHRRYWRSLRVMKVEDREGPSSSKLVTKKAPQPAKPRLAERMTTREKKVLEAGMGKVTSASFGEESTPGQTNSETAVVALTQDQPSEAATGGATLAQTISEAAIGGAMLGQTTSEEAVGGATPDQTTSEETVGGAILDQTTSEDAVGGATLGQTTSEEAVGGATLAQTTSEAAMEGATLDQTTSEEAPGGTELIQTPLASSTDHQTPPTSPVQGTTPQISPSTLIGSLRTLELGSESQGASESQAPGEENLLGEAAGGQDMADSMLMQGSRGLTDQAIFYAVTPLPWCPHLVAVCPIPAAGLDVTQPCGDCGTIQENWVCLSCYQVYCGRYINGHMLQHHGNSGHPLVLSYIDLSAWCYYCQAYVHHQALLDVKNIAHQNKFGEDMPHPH

[3] = system: K562; test: cells; assay type: functional, cell-based; conditions: Homo sapiens, K562, 72 h
[4] = cells; assay type: functional, cell-based; conditions: Homo sapiens, KATO III, 72 h
[5] = system: A2780; test: cells; assay type: functional, cell-based; conditions: Homo sapiens, A2780, 72 h
[6] = system: Jurkat; test: cells; assay type: functional, cell-based; conditions: Homo sapiens, 72 h
[7] = system: SNU-16; test: cells; assay type: functional, cell-based; conditions: Homo sapiens, SNU-16, 72 h
[8] = system: SNU-16; conditions: Homo sapiens, dose 1-100 nM, time 36.0 hrs
[9] = system: HCT-116; test: cells; assay type: functional, cell-based; conditions: Homo sapiens, HCT-116, 72 h
[10] = system: SNU-16; conditions: Homo sapiens, dose 1-100 nM, time 36.0 hrs; remark: listed apart in the source

Histone deacetylase 1, sequence (Q13547 whole entry): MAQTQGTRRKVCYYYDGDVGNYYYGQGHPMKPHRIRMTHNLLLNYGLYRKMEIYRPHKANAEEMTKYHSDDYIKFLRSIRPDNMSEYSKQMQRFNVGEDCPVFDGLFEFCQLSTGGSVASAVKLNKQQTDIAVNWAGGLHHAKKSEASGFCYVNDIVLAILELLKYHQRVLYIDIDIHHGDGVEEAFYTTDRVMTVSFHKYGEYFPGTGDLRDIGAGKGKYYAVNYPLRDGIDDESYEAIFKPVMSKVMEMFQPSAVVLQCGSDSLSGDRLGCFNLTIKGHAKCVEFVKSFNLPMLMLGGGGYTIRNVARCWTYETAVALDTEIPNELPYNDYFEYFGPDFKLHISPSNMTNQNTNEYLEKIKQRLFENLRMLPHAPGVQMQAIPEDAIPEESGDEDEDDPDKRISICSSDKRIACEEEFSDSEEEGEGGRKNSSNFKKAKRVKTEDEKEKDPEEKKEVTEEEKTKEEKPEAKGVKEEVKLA

Structure (SMILES)	IC50 [1] [nM]	further results
COc1cc(OC)cc(N(CCNC(C)C)c2ccc3ncc(-c4cnn(Cc5cccc(C(=O)NO)c5)c4)nc3c2)c1	> 1000	
COc1cc(OC)cc(N(CCNC(C)C)c2ccc3ncc(-c4cnn(CCCCCC(=O)NO)c4)nc3c2)c1	4.4	
COc1cc(OC)cc(N(CCNC(C)C)c2ccc3ncc(-c4cnn(CCCCCOc5ccc(C(=O)NO)cc5)c4)nc3c2)c1	273	
COc1cc(OC)cc(N(CCCCC(=O)NO)c2ccc3ncc(-c4cnn(C)c4)nc3c2)c1	157	IC50 [2]: 107 nM
COc1cc(OC)cc(N(CCNC(C)C)c2ccc3ncc(-c4cnn(C)c4)nc3c2)c1 [ERDAFITINIB]		IC50 [3]: 3020 nM; IC50 [4]: 4 nM; IC50 [5]: 20 nM; IC50 [6]: 6810 nM; IC50 [7]: 0.7 nM; inhibition [8]: Dde; IC50 [9]: 4240 nM; inhibition [10]: Active
COc1cc(OC)cc(N(CCNC(C)C)c2ccc3ncc(-c4cnn(Cc5ccc(CC(=O)NO)cc5)c4)nc3c2)c1	> 1000	

Continued, in another order:

IC50 [1] [nM]	Structure (SMILES)	further results
77	COc1cc(OC)cc(N(CC2CC2)c2ccc3ncc(-c4cnn(CCCCCC(=O)NO)c4)nc3c2)c1	
2.6	COc1cc(OC)cc(N(CCCCCC(=O)NO)c2ccc3ncc(-c4cnn(C)c4)nc3c2)c1	IC50 [2]: 6.3 nM
126	COc1cc(OC)cc(N(CCNC(C)C)c2ccc3ncc(-c4cnn(CCCOc5ccc(C(=O)NO)cc5)c4)nc3c2)c1	
160	COc1cc(OC)cc(N(CCNC(C)C)c2ccc3ncc(-c4cnn(CCCCOc5ccc(C(=O)NO)cc5)c4)nc3c2)c1	
16	COc1cc(OC)cc(N(CCNC(C)C)c2ccc3ncc(-c4cnn(CCCCCCCCC(=O)NO)c4)nc3c2)c1	
